Patent publication US10188665B2, “Ocular therapy using glucocorticoid derivatives selectively penetrating posterior segment tissues” (Allergan, Inc., priority 2005, dated 2019)

Key:
[1] = system: VEGF-induced BRB breakdown (retinal leakage); assay: VEGF-induced blood retinal barrier (BRB) breakdown, scanning ocular fluorophotometry of fluorescein leakage; format: in vivo, rabbit; conditions: for Inhibition of VEGF-induced BRB breakdown (fluorescein leakage into posterior segment): rabbit eye, 1 mg (100 μl of 10 mg/ml suspension) intravitreal, then intravitreal VEGF, read 48 h later; for Block of VEGF-induced BRB breakdown (retinal leakage): corticosteroid administered systemically or intravitreally
Experimental: (§1) Recombinant vascular endothelial growth factor (VEGF) was obtained from a supplier (R&D Systems). Female Dutch Belt rabbits were anaesthetized with isoflurane inhalation and topical 0.5% proparacaine hydrochloride, and intravitreal injection of one eye with 500 ng VEGF in sterile phosphate buffered saline (PBS) containing 0.1% bovine serum albumin was performed using a 28 guage ½ inch needle. The other eye is given the same volume of the vehicle, without the VEGF.
(§2) The extent of VEGF-induced BRB and BAB breakdown of the blood retinal barrier and the blood aqueous barrier was measured by scanning ocular fluorophotemetry (Fluorotron Master, Ocumetrics Inc.); at various times following intravitreal injection. In this model a fluorescent label is administered intravenously, following by determination of the amount of fluorescenin in the anterior and posterior segment and an indication of iridial and retinal leakage, respectively.
(§3) Sodium fluorescein in 1 ml saline was injected via the marginal ear vein at a concentration of 50 mg/kg, and ocular fluorescein levels in the vitreoretinal chamber and the anterior chamber was determined 50 minutes later.
(§4) Ten milligrams of each compound is added to 1 ml of sterile phosphate-buffered saline (PBS; ph 7.4). At day 0, 100 ml of a 10 mg/ml suspension of each steroid is injected into the vitreous of a rabbit eye. The PBS vehicle is injected into the other eye. VEGF is then injected at a pre-determined time (one month) thereafter, and BRB and BAB breakdown were measured by scanning ocular fluorophotometry 48 hrs later as described in Edelman et al., EXP.

[2] = Treatment of cystic macular edema with a GD implant (Example 4); format: in vivo, human
Experimental: A person diagnosed with cystic macular edema treated by administration of a biodegradable drug delivery system administered to each eye of the patient. […] A similar implant is administered subconjunctivally to the patient's right eye. […] No increase in intraocular pressure is seen one week after administration.

[3] = Treatment of wet ARMD with a GD composition (Example 5); format: in vivo, human; conditions: person, intravitreal 100 μl hyaluronic acid solution with about 1000 μg crystals; within one month
Experimental: A person with wet age-related macular degeneration is treated with an intravitreal injection of 100 μl of a hyaluronic acid solution containing about 1000 μg of fluticasone propionate crystals in suspension.

[4] = system: VEGF-induced BAB breakdown (iris leakage); assay: VEGF-induced blood aqueous barrier (BAB) breakdown, scanning ocular fluorophotometry of fluorescein leakage; format: in vivo, rabbit; conditions: for Inhibition of VEGF-induced BAB breakdown (fluorescein leakage into anterior segment): rabbit eye, 1 mg (100 μl of 10 mg/ml suspension) intravitreal, then intravitreal VEGF, read 48 h later; for Block of VEGF-induced BAB breakdown (iris leakage): corticosteroid administered systemically or intravitreally
Experimental: as §1, §2, §3, §4

[5] = rabbit, 500 ng VEGF intravitreal, 48 h, 50 min after i.v. fluorescein

| Molecule | Inhibition of VEGF-induced BRB breakdown (fluorescein leakage into posterior segment) [1] | Inhibition of VEGF-induced BAB breakdown (fluorescein leakage into anterior segment) [4] | Block of VEGF-induced BAB breakdown (iris leakage) ([4]; rabbit) | Block of VEGF-induced BRB breakdown (retinal leakage) ([1]; rabbit) | also measured |
| --- | --- | --- | --- | --- | --- |
| CCC(=O)OCC(=O)[C@@]1(OC(=O)CC)[C@@H](C)C[C@H]2[C@@H]3CCC4=CC(=O)C=C[C@]4(C)[C@@]3(Cl)[C@@H](O)C[C@@]21C [Beclomethasone dipropionate, beclomethasone dipropionate] | – | – | – | – | Inhibition of VEGF-induced BRB breakdown (fluorescein leakage into posterior segment) ([1]; listed as beclomethasone 17,21-dipropionate): completely blocks; Appearance of retina ([2]; person, implant of about 1000 μg PLGA and about 1000 μg drug, intravitreal left eye, subconjunctival right eye, about 3 months after surgery): appears normal; Degeneration of the optic nerve ([2]; same patient, about 3 months after surgery): appears to be reduced; Intraocular pressure ([2]; same patient, one week after administration): No increase |
| CCC(=O)O[C@]1(C(=O)SCF)[C@H](C)C[C@H]2[C@@H]3C[C@H](F)C4=CC(=O)C=C[C@]4(C)[C@@]3(F)[C@@H](O)C[C@@]21C [Fluticasone propionate, fluticasone propionate] | completely blocks | – | – | – | Rate of neovascularization and related inflammation [3]: acceptable reduction |
| CC1(C)O[C@@H]2C[C@H]3[C@@H]4CCC5=CC(=O)C=C[C@]5(C)[C@@]4(F)[C@@H](O)C[C@]3(C)[C@]2(C(=O)CO)O1 [Triamcinolone acetonide, triamcinolone acetonide] | completely inhibited | completely inhibited | completely blocked | completely blocked | – |
| C[C@H]1C[C@H]2[C@@H]3CCC4=CC(=O)C=C[C@]4(C)[C@@]3(Cl)[C@@H](O)C[C@]2(C)[C@@]1(O)C(=O)CO [beclomethasone] | inhibited | inhibited | completely blocked | completely blocked | – |
| VEGF | – | – | – | – | Increase in fluorescein contained in the aqueous versus normal untreated eyes [4, 5]: approximately 6 fold; Increase in fluorescein contained in the vitreous versus normal untreated eyes [1, 5]: approximately 18 fold |
